Consider six molecules from BindingDB's records for doi:10.1021/jm900681h (Amgen, 2009).

SMILES strings stand for the structures.

In general, IC50 refers to the concentration that gives 50% inhibition.

Sequence of Cellular tumor antigen p53 (P04637 whole entry): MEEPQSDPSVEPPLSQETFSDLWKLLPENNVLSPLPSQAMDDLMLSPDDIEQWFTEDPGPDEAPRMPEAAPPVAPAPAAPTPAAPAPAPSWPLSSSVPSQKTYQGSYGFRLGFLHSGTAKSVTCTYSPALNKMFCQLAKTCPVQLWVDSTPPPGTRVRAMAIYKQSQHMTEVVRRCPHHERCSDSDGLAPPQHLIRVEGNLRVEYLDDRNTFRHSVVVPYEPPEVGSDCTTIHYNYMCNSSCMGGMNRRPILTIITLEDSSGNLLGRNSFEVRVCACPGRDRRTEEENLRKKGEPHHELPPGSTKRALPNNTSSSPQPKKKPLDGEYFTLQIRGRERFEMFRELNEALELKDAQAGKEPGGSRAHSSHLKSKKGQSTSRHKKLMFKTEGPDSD

One assay concerns the target Cellular tumor antigen p53 (Homo sapiens, UniProt P04637). Nature of the assay: Induction of p53-Ser15 phosphorylation in human HCT116 cells after 24 hrs.
Molecule `Cc1ccc2c(c1)C1=C(C(c3ccc(Br)cc3)O2)C(c2ccc(Br)cc2)n2ncnc2N1C` (configuration not stated) came in with an IC50 of 1 µM.

Molecular target in another assay: not listed separately
Nature of the assay: Induction of p53 in human HCT116 cells coexpressing pp53TA-luc assessed as inhibition of cell proliferation after 8 hrs by firefly/renilla luciferase reporter assay. (In general: A reporter such as luciferase makes a cellular process visible.)
`CCOc1cccc2c1C1=C(C(c3ccc(Br)cc3)O2)C(c2ccc(Br)cc2)n2ncnc2N1C` (racemic) [(+/-)-syn-6,7-Bis(4-bromophenyl)-1-ethoxy-12-methyl-7,12-dihydro-6H-chromeno[4,3-d][1,2,4]triazolo[1,5-a]pyrimidine]: the IC50 is 6.5 µM. On the same count and under the same terms, then `Cc1cc2c(cc1F)OC(c1ccc(Br)cc1)C1=C2N(C)c2ncnn2C1c1ccc(Br)cc1` (racemic) [(+/-)-syn-6,7-Bis(4-bromophenyl)-3-fluoro-2,12-dimethyl-7,12-dihydro-6H-chromeno[4,3-d][1,2,4]triazolo[1,5-a]pyrimidine], with 11.4 µM; and `Cc1ccc2c(c1)C1=C(C(c3ccc(Br)cc3)O2)C(c2ccc(Br)cc2)n2ncnc2N1C` (configuration not stated), with 3 µM. The same measure, in the same setting: for `CN1C2=C(C(c3ccc(Br)cc3)Oc3ccc(F)cc32)C(c2ccc(Br)cc2)n2ncnc21` (racemic) [(+/-)-syn-6,7-Bis(4-bromophenyl)-2-fluoro-12-methyl-7,12-dihydro-6H-chromeno[4,3-d][1,2,4]triazolo[1,5-a]pyrimidine] the value was 44.3 µM. `CN1C2=C(C(c3ccc(Cl)cc3)Oc3ccccc32)C(c2ccc(Cl)cc2)n2ncnc21` (racemic) [(+/-)-syn-6,7-Bis(4-chlorophenyl)-12-methyl-7,12-dihydro-6Hchromeno[4,3-d][1,2,4]triazolo[1,5-a]pyrimidine]: the 50% inhibitory concentration (IC50) came to 9.37 µM.

`CN1C2=C(C(c3ccc(Cl)cc3)Oc3ccccc32)C(c2ccc(Br)cc2)n2ncnc21` (racemic) [(+/-)-syn-7-(4-Bromophenyl)-6-(4-chlorophenyl)-12-methyl-7,12-dihydro-6H-chromeno[4,3-d][1,2,4]triazolo[1,5-a]pyrimidine]: the IC50 is 15 µM.
